Source: US20100098737A1, “METHODS AND COMPOSITIONS FOR DELIVERY OF GLYCOPEPTIDE ANTIBIOTICS TO MEDICAL DEVICE SURFACES” (priority 2008, published 2010)
Where two headings read alike, the source gives them in different places. *1 amine or outer side, *2 acyl side, *3 side chain or, on linkers, in order; H or OH if unused. Bridges are numbered along the chain shown (N, C = ends). Where no end group is shown, it is not given here. [ ]: non-standard residue; d: D form. (miniPEG)2 = linker of two miniPEG units, each HN-CH2CH2-O-CH2CH2-O-CH2-C(=O), O=C(COCCOCCN[*:1])NCCOCCOCC(=O)[*:2]

Experiments:
[1] = test system: Staphylococcus aureus strain MZ100; test: in vitro infection assay on titanium beads, colony counts; type: cell-based; details: peptide 5 μM + vancomycin 100 μM
Method: To illustrate the antibacterial activity of the peptide compositions, an in vitro infection assay was performed. Briefly, a surface material was contacted with one of the peptide compositions such that the peptide binds to the surface material. The peptide composition can have glycopeptide antibiotic already bound thereto at the time of contacting the peptide with the surface material, or the glycopeptide antibiotic can be contacted with the peptide in a step subsequent to binding the peptide composition to the surface material. The surface material was washed to remove unbound glycopeptide antibiotic, and then contacted with bacterial cells (added from a culture in log phase growth) and incubated to promote bacterial growth. The surface material was washed, and any bacterial cells colonizing the surface material removed and plated to assess bacterial growth.
In one example, Staphylococcus aureus strain MZ100 was used as the representative bacterial cells. First, as a representative surface material, titanium beads were sterilized in acetone in a sonication bath, and then air dried in a sterile hood. The beads were individually placed in sterilized microfuge tubes (one bead per tube). […] The next day, the plates were examined for bacterial growth, and the number of bacterial colonies was quantified per plate.

S. aureus = test: bacterial growth with loaded titanium beads, optical density at 600 nm; type: cell-based; details: peptide 10 μM + vancomycin 200 μM, 37° C. for 18 hours
Method: In another experiment, antimicrobial activity of the peptide compositions was measured as follows. Titanium beads were placed into wells of a 96 well plate. To each well was added a 10 μM of peptide composition comprising at least one surface-binding peptide coupled to at least one glycopeptide antibiotic binding peptide and vancomycin at 200 μM. The appropriate negative controls were also included. The plate was incubated for 1 hour at 20° C., and then the wells and beads were washed 4 times with buffer. After washing, the beads were transferred to the well of a plate containing S. aureus in log phase growth and incubated at 37° C. for 18 hours. Bacterial growth was assessed by reading optical density at 600 nm.

[2] = binding assay: biotinylated synthetic peptide on streptavidin plate, titrated with biotinylated glycopeptide antibiotic
Method: A typical binding assay for glycopeptide antibiotic was performed according to the following procedure. Briefly, synthetic peptides comprising an amino acid sequence to be characterized for binding were biotinylated to facilitate immobilization on streptavidin-coated 96-well plates. The microtiter plates were coated with streptavidin by adding 50 μl of a 10 μg/ml streptavidin solution in 0.1M NaHCO3, and incubating the plates for at least 3 hours. The plate wells were blocked by adding 150 μl of a 1% BSA solution in 0.1 NaHCO3 with incubation for at least 2 hours, and the plates were stored at 4° C. until needed. Before use, the streptavidin plates were washed extensively in buffer-T. Added per well was peptide (100 μl 0.1 μM peptide in buffer-T), and then incubated for 30 minutes at room temperature with shaking. 200 μl of 0.5 mM biotin in buffer-T was added to block the remaining streptavidin sites, and plates were incubated for 15 minutes at room temperature. Plates were then washed with buffer-T to remove the excess biotin and peptide. Serial dilutions of biotinylated glycopeptide antibiotic in buffer-T were added (100 μl) to each well, representing a range of concentrations between 100 pM and 100 μM. Plates were incubated for 30 minutes at room temperature with shaking prior to washing several times with buffer-T. Glycopeptide antibiotic was then detected by adding 100 μl of a diluted streptavidin-alkaline phosphatase conjugate to each well and incubated at room temperature for 30 minutes. Excess conjugate was removed by repeated washes with buffer-T, and the amount of alkaline phosphatase remaining in the well was detected using a pNPP (para-nitrophenylphosphate) colorimetric enzymatic assay. The relative amount of glycopeptide antibiotic captured by the peptides was determined by measuring the absorbance at 405 nm of the colored product of the alkaline phosphatase reaction. The EC50 was determined for each peptide relative to the binding affinity for the glycopeptide antibiotic used in the assay, as shown in Table 1 (with vancomycin as a representative glycopeptide antibiotic).
(§1) A typical binding assay for glycopeptide antibiotic was performed according to the following procedure. The concentrations of the alkaline-phosphatase linked variant peptides were normalized to equal levels based on the alkaline-phosphatase activity as determined in a kinetic assay with the alkaline-phosphatase specific chromogenic substrate p-nitrophenyl phosphate (p-NPP). A streptavidin coated microtiter plate was coated with biotinylated vancomycin. Serial dilutions of normalized alkaline-phosphatase linked peptides were allowed to bind to the immobilized vancomycin and detected by addition of the alkaline-phosphatase specific chromogenic substrate p-NPP. Relative affinity for peptide binding to the immobilized vancomycin was determined by measuring the absorbance at 405 nm of the colored product of the alkaline phosphatase reaction. […] EC50 values for the synthetic peptides binding to vancomycin were determined as described in Example 1 and are shown in Table 3. Preferred are peptides that bind to glycopeptide antibiotic with binding affinity of EC50 of less than or equal to about 1 μM, and more preferably, in the nanomolar range (e.g., <0.1 μM).

vancomycin [3] = test: competition on plates: immobilised biotinylated SEQ ID NO: 1 peptide, 20 nM biotinylated vancomycin, Lys-D-Ala-D-Ala titrated
[4] = binding of serially diluted alkaline-phosphatase linked peptides to immobilized biotinylated vancomycin; details: absorbance at 405 nm
Text: From the peptide amino acid sequence […] (SEQ ID NO: 1) additional peptides were designed and expressed in the bacterial expression system described herein to further evaluate structure-function relationships. A truncated peptide comprising the amino acid sequence of SEQ ID NO:9 (STCLIDMYGVCH) was expressed and compared to a peptide comprising SEQ ID NO:1 for binding affinity for glycopeptide antibiotic. Also produced were a dimer of this truncated peptide (SEQ ID NO:10; […]), a D to A substitution (SEQ ID NO:11; STCLIAMYGVCH), a D to E substitution (SEQ ID NO:12; STCLIEMYGVCH), and a G to S substitution (SEQ ID NO:13; STCLIDMYSVCH). Relative binding strengths of these peptides and of other representative peptides to glycopeptide antibiotic were determined by EC50 values for binding to vancomycin or other glycopeptide antibiotic.
as §1

vancomycin [5] = test: plate assay: biotinylated peptide on streptavidin, biotinylated vancomycin titrated, streptavidin-AP detection
vancomycin [6] = test: titanium beads with 10 µM peptide composition and 200 µM vancomycin, washed, vancomycin eluted with HCl and measured by HPLC
vancomycin [7] = test: plate assay as in Example 1: synthetic peptide on streptavidin, biotinylated vancomycin titrated
[8] = synthetic peptides, biotinylated vancomycin, read-out: EC50 (μM) for vancomycin binding
[9] = synthetic peptides binding to vancomycin, read-out: EC50, binding to glycopeptide antibiotic

In the case of NHTISKNHKKKNKNSNKTR [SEQ ID NO: 119], the “# of bacterial colonies” value ([1]; 2 hour incubation) is reported as 0.

For “131 (SSCLIDIYGVCHNFDAY[(miniPEG)2]SSHRTNHKKNNPKKKNKTRGSSGK; disulfide 3-11 (inferred)) [compound 131]”, the “inhibition of bacterial growth (optical density at 600 nm)” value (“inhibition of bacterial growth” for short) (S. aureus) was “complete inhibition”.

For SCDMLFCENFSGSGNNWFS [compound 4], the EC50 [2, 8] was 10 µM.

Molecule Lys-D-Ala-D-Ala (peptide) has an IC50 (vancomycin [3]) of 10000 nM and a percent inhibition at 100 µM to 200 µM Lys-D-Ala-D-Ala (vancomycin [3]) of 100%.

For STCLIDMYGVCH [compound 9], the EC50 [2, 9] was under 1 µM and the “glycopeptide antibiotic binding of alkaline-phosphatase linked peptides” value (shortened to “glycopeptide antibiotic binding”) [4] was “displayed glycopeptide antibiotic binding”.

In the case of “119 (NHTISKNHKKKNKNSNKTR) [compound 119]”, the “bacterial growth on the plates” value [1] is reported as “completely inhibited”.

In the case of “130 (SSCLIDIYGVCHNFDAY[(miniPEG)2]HKKNNPKKKNKTRGSSK; disulfide 3-11 (inferred)) [compound 130]”, the “inhibition of bacterial growth” value (S. aureus) is reported as “complete inhibition”.

For 12 (STCLIEMYGVCH) [compound 12], the “glycopeptide antibiotic binding” value [4] was “no detectable glycopeptide antibiotic binding”.

With PCELIDMFGNDHCP [compound 3] the EC50 [2, 9] was under 0.1 µM and the EC50 [2, 8] was 0.82 µM.

For SLIDMYGVCHNFDGAYDS [compound 5], the EC50 [2, 8] was 10 µM.

For STCLIDMYGVCHSSCLIDMYGVCH [compound 10], the EC50 [2, 9] was under 1 µM and the “glycopeptide antibiotic binding” value [4] was “displayed glycopeptide antibiotic binding”.

With 11 (STCLIAMYGVCH) [compound 11] the “glycopeptide antibiotic binding” value [4] was “no detectable glycopeptide antibiotic binding”.

In the case of CLFDIFGVCHSFDGAYDS [compound 2], the EC50 [2, 9] is reported as under 0.1 µM and the EC50 [2, 8] is reported as 0.06 µM.

With 13 (STCLIDMYSVCH) [compound 13] the “glycopeptide antibiotic binding” value [4] was “no detectable glycopeptide antibiotic binding”.

In the case of “120 (H-SSSCLIDMYGVCHNFDGAYDSSRG[(miniPEG)2]SSHRTNHKKNNPKKKNKTRGSSGK-NH2; disulfide 4-12) [compound 120]”, the “inhibition of bacterial growth” value (S. aureus) is reported as “complete inhibition”.

SLIDMYGVCHNFDGAYDS (also: biotinylated, site not given here) [synthetic peptide comprising SEQ ID NO: 5] gave an EC50 (vancomycin [5]) of 10000 nM.

For SSCLIDIYGVCHNFDAY[(miniPEG)2]HKKNNPKKKNKTRGSSK (disulfide 3-11 (inferred)) [peptide composition SEQ ID NO: 130], the Picomoles vancomycin/cm^2 (picomoles/cm^2) (vancomycin [6]) was 83.

Work on CLIDMYGVCHNFDGAYDS (cysteine pairing not given here; also: biotinylated, site not given here) [synthetic peptide comprising SEQ ID NO: 1] yielded an EC50 (vancomycin [7]) of under 100 nM and an EC50 (vancomycin [5]) of 100 nM.

For PCELIDMFGNDHCP (cysteine pairing not given here; also: biotinylated, site not given here) [synthetic peptide comprising SEQ ID NO: 3], the EC50 (vancomycin [7]) was under 100 nM and the EC50 (vancomycin [5]) was 820 nM.

With CLFDIFGVCHSFDGAYDS (cysteine pairing not given here; also: biotinylated, site not given here) [synthetic peptide comprising SEQ ID NO: 2] the EC50 (vancomycin [7]) was under 100 nM and the EC50 (vancomycin [5]) was 60 nM.

In the case of STCLIDMYGVCH (cysteine pairing not given here; also: biotinylated, site not given here) [synthetic peptide comprising SEQ ID NO: 9], the EC50 (vancomycin [7]) is reported as under 1000 nM.

Work on STCLIDMYGVCHSSCLIDMYGVCH (cysteine pairing not given here; also: biotinylated, site not given here) [synthetic peptide comprising SEQ ID NO: 10] yielded an EC50 (vancomycin [7]) of under 1000 nM.

In the case of SCDMLFCENFSGSGNNWFS (cysteine pairing not given here; also: biotinylated, site not given here) [synthetic peptide comprising SEQ ID NO: 4], the EC50 (vancomycin [5]) is reported as 10000 nM.

For SSCLIDIYGVCHNFDAY[(miniPEG)2]SSHRTNHKKNNPKKKNKTRGSSGK (disulfide 3-11 (inferred)) [peptide composition SEQ ID NO: 131], the Picomoles vancomycin/cm^2 (picomoles/cm^2) (vancomycin [6]) was 76.
